Twelve molecules from patent US20260274814A1, “THIENYL COMPOUNDS FOR THE TREATMENT OF A CENTRAL NERVOUS SYSTEM DISEASE OR DISORDER” (Coreterra Therapeutics, Inc., priority 2023, published 2026) can be followed below.

Structures can show the parent of a compound that is named as a salt. Where two headings read alike, the source gives them in different places.

This assay relates to mice. Description: Neuropharmacological Assay (SmartCube): automated behavioral signature of compound-treated mice compared with a database of reference drug classes. The following applies: for minimal effective dose: Mus musculus, ip; for minimal effective dose / MED (minimal effective dose) / MED: i.p., that dose is shown; for AD / AG / AN / CE / HL / MS / PS / SH / AP / AX / UK: 3.0 mg/kg i.p., 15 min before test. The format is in vivo. The gist of the method: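 Mice dosed i.p. 15 min before SmartCube testing, with compound in N-methyl-2-pyrrolidone/polyethylene glycol/propylene glycol. Video-captured behaviour is compared with a reference-drug signature database to give per-class probabilities, reported at 3.0 mg/kg. MED, from doses usually 0.3–10 mg/kg, is the lowest dose giving ≥45% total activity.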

The mark [1] stands for this setting: minimal effective dose: dose having 45% or more total activity in SmartCube, if only one dose tested, read-out: MED.
Setting [2] is: SmartCube class probability, hydrochloride, 3 mg/kg.
[3] abbreviates: probability that activity matches this class of agents.
[4] abbreviates: dose having 45% or more total activity in SmartCube, if only one dose was tested, hydrochloride.
The mark [5] stands for this setting: probability that activity matches this class of agents, hydrochloride, 3 mg/kg.
[6] abbreviates: SmartCube class probability, 3 mg/kg.
Where [7] appears, read: minimal effective dose: dose having 45% or more total activity in SmartCube, if only one dose tested, hydrochloride.

For the molecule `CNC1CCc2scc(C3CC3)c2C1` (single isomer, unassigned) [Compound 249, 3-cyclopropyl-N-methyl-4,5,6,7-tetrahydrobenzothiophen-5-amine hydrochloride], under setting [1], the minimal effective dose came to 3 mg/kg. In addition, for the setting “SmartCube class probability”, the AD entry is “ND (^ <4%)”, the AG result is reported as “ND (^ <4%)”, the AN result is “ND (^ <4%)” and the CE result is given as “ND (^ <4%)”. For the same molecule, under “SmartCube class probability”, the HL result is on record as “ND (^ <4%)”, the MS result is reported as “ND (^ <4%)”, the PS result is given as “ND (^ <4%)” and the SH result is reported as “ND (^ <4%)”. For the same molecule, under setting [2], the AP entry is “ND (^ <4%)”, the AX entry is given as “ND (^ <4%)” and the UK entry is listed as “++ (≥24%)”.

For `CNC1Cc2cscc2C1.Cl` [Compound 21, N-methyl-5,6-dihydro-4H-cyclopenta[c]thiophen-5-amine hydrochloride], where the note is “dose having 45% or more total activity in SmartCube, if only one dose was tested, read-out: MED (minimal effective dose)”, the minimal effective dose stood at 3 mg/kg. Under setting [3], the AD entry is listed as “ND (^ <4%)”, the AG result is “ND (^ <4%)”, the AN entry is “ND (^ <4%)” and the AP entry is “ND (^ <4%)”. Also, under setting [3], the AX entry is listed as “ND (^ <4%)”, the CE result is given as “ND (^ <4%)”, the HL result is recorded as “ND (^ <4%)” and the MS result is given as “ND (^ <4%)”. For the same molecule, under setting [3], the PS result is recorded as “ND (^ <4%)”, the SH entry is listed as “ND (^ <4%)” and the UK entry is “+++ (≥49%)”.

For `Cc1csc2c1CCC(N)C2` (single isomer, unassigned) [Compound 66, 3-methyl-4,5,6,7-tetrahydrobenzothiophen-6-amine hydrochloride], under setting [4], the “MED (minimal effective dose)” value was 1 mpk. Further, under setting [3], the AG result is reported as “ND (^ <4%)”, the AN result is recorded as “ND (^ <4%)”, the AX result is “ND (^ <4%)” and the CE result is “ND (^ <4%)”. Besides, under setting [3], the MS result is reported as “ND (^ <4%)”, the SH entry is “ND (^ <4%)” and the UK entry was “ND (^ <4%)”. Besides, under setting [5], the AD result is on record as “ND (^ <4%)”, the AP entry is on record as “++++ (≥74%)”, the HL entry is given as “ND (^ <4%)” and the PS entry is reported as “ND (^ <4%)”.

Regarding `CC1(N2CCCC2)CCc2ccsc2C1` (single isomer, unassigned) [Compound 275, 1-(6-methyl-4,5,6,7-tetrahydrobenzo[b]thiophen-6-yl)pyrrolidine], the minimal effective dose under setting [1] came out at 3 mg/kg. Besides, under “SmartCube class probability”, the AD result is “ND (^ <4%)”, the AG entry was “ND (^ <4%)”, the AN entry was “ND (^ <4%)” and the AP entry is “ND (^ <4%)”. In addition, where the note is “SmartCube class probability”, the CE result was “ND (^ <4%)”, the HL entry is on record as “ND (^ <4%)”, the MS result is reported as “ND (^ <4%)” and the SH result is “ND (^ <4%)”. For the same molecule, where the note is “SmartCube class probability”, the UK entry is “ND (^ <4%)”. Also, under setting [6], the AX entry is “ND (^ <4%)” and the PS entry is recorded as “++++ (≥74%)”.

With `CNC1CCc2c(C)csc2C1` (single isomer, unassigned) [Compound 44, N, 3-dimethyl-4,5,6,7-tetrahydrobenzothiophen-6-amine hydrochloride], the “MED (minimal effective dose)” value under setting [4] amounted to 1.0 mpk. Under setting [3], the AG result is “ND (^ <4%)”, the AN result was “ND (^ <4%)”, the AX result is “ND (^ <4%)” and the CE entry is recorded as “ND (^ <4%)”. Under setting [3], the HL entry is “ND (^ <4%)”, the MS entry was “ND (^ <4%)”, the PS result was “ND (^ <4%)” and the SH entry is “ND (^ <4%)”. Also, under setting [3], the UK entry is listed as “ND (^ <4%)”. Moreover, under setting [5], the AD entry is reported as “++ (≥24%)” and the AP result is listed as “+++ (≥49%)”.

`CNC1CCc2csc(F)c2C1` (single isomer, unassigned) [Compound 74, 3-fluoro-N-methyl-4,5,6,7-tetrahydro-2-benzothiophen-5-amine hydrochloride]: under setting [4], the “MED (minimal effective dose)” value was found to be 3 mpk. Moreover, under setting [3], the AG entry is reported as “ND (^ <4%)”, the AN entry is given as “ND (^ <4%)”, the CE result was “ND (^ <4%)” and the HL result is “ND (^ <4%)”. Moreover, under setting [3], the MS result was “ND (^ <4%)”, the PS result was “ND (^ <4%)”, the SH result is on record as “ND (^ <4%)” and the UK entry is given as “ND (^ <4%)”. Also, under setting [5], the AD entry is “+ (≥4%)”, the AP entry is “++++ (≥74%)” and the AX result is given as “ND (^ <4%)”.

For `CNC1CCCc2ccsc2C1.Cl` (single isomer, unassigned) [Compound 25, N-methyl-5,6,7,8-tetrahydro-4H-cyclohepta[b]thiophen-7-amine hydrochloride], the “MED (minimal effective dose)” value under setting [4] is given as 1.0 mpk. Moreover, under setting [3], the AD entry was “ND (^ <4%)”, the AG entry is “ND (^ <4%)”, the AN result is given as “ND (^ <4%)” and the AX result was “ND (^ <4%)”. Under setting [3], the HL entry is on record as “ND (^ <4%)”, the MS result is reported as “ND (^ <4%)” and the PS entry is “ND (^ <4%)”. Further, under setting [5], the AP entry is reported as “++++ (≥74%)”, the CE entry was “ND (^ <4%)”, the SH result is “ND (^ <4%)” and the UK result was “ND (^ <4%)”.

Regarding `NC1CCc2scc(F)c2C1` (single isomer, unassigned) [Compound 192, 3-fluoro-4,5,6,7-tetrahydrobenzothiophen-5-amine hydrochloride], under “SmartCube class probability”, the AX entry is reported as “ND (^ <4%)”, the HL result was “ND (^ <4%)”, the MS result is “ND (^ <4%)” and the SH result was “ND (^ <4%)”. Moreover, under setting [2], the AD entry is on record as “ND (^ <4%)”, the AG result is on record as “ND (^ <4%)”, the AN entry is “ND (^ <4%)” and the AP result was “ND (^ <4%)”. Under setting [2], the CE entry was “ND (^ <4%)”, the PS entry is “ND (^ <4%)” and the UK result was “+++ (≥49%)”. Besides, the MED under setting [7] is reported as 3 mpk.

Take `c1scc2c1CCC(NCC1CC1)C2` (single isomer, unassigned) [Compound 159, N-(cyclopropylmethyl)-4,5,6,7-tetrahydro-2-benzothiophen-5-amine hydrochloride]: where the note is “SmartCube class probability”, the AD entry is “ND (^ <4%)”, the AG entry was “ND (^ <4%)”, the AN result is reported as “ND (^ <4%)” and the AP entry is “ND (^ <4%)”. For the same molecule, under “SmartCube class probability”, the CE result is reported as “ND (^ <4%)”, the HL result is “ND (^ <4%)”, the MS entry is given as “ND (^ <4%)” and the PS entry is “ND (^ <4%)”. Under “SmartCube class probability”, the SH entry is “ND (^ <4%)”. Moreover, under setting [2], the AX result is recorded as “ND (^ <4%)” and the UK result is “+ (≥4%)”. For the same molecule, the MED under setting [7] is recorded as >3 mpk.

For the molecule `Cc1csc2c1CC(N)CC2` (single isomer, unassigned) [Compound 144, 3-methyl-4,5,6,7-tetrahydrobenzothiophen-5-amine hydrochloride], under “SmartCube class probability”, the AG result was “ND (^ <4%)”, the AN result is recorded as “ND (^ <4%)”, the AP result is on record as “ND (^ <4%)” and the AX entry is “ND (^ <4%)”. Under “SmartCube class probability”, the CE result is given as “ND (^ <4%)” and the MS entry is reported as “ND (^ <4%)”. Moreover, under setting [2], the AD entry is listed as “ND (^ <4%)”, the HL entry is “ND (^ <4%)”, the PS result is reported as “ND (^ <4%)” and the SH entry was “ND (^ <4%)”. For the same molecule, the UK entry under setting [2] was “++++ (≥74%)”. This molecule showed an MED (minimal effective dose: dose having 45% or more total activity in SmartCube, if only one dose tested) of 1 mpk.

As to `CNC1CCc2sc(Cl)cc2C1` (single isomer, unassigned) [Compound 151, 2-chloro-N-methyl-4,5,6,7-tetrahydrobenzothiophen-5-amine hydrochloride], under setting [1], the minimal effective dose is 3 mg/kg. In addition, under “SmartCube class probability”, the AD entry was “ND (^ <4%)”, the AG result is listed as “ND (^ <4%)”, the AN result was “ND (^ <4%)” and the AP result was “ND (^ <4%)”. Besides, for the setting “SmartCube class probability”, the AX entry is given as “ND (^ <4%)”, the CE entry is “ND (^ <4%)”, the HL result is listed as “ND (^ <4%)” and the MS entry is listed as “ND (^ <4%)”. For the setting “SmartCube class probability”, the PS result is recorded as “ND (^ <4%)” and the SH result is on record as “ND (^ <4%)”. Also, the UK entry under setting [2] was “+++ (≥49%)”.

As for `CC1(N)CCc2c(C(F)(F)F)csc2C1.Cl` (single isomer, unassigned) [Compound 241, 6-methyl-3-(trifluoromethyl)-5,7-dihydro-4H-benzothiophen-6-amine hydrochloride], the minimal effective dose under setting [1] was found to be 3 mg/kg. For the same molecule, for the setting “SmartCube class probability”, the AG entry was “ND (^ <4%)”, the AN entry is “ND (^ <4%)”, the AP result is on record as “ND (^ <4%)” and the AX result is “ND (^ <4%)”. For the same molecule, under “SmartCube class probability”, the CE entry is on record as “ND (^ <4%)”, the HL entry is “ND (^ <4%)”, the MS result is reported as “ND (^ <4%)” and the PS entry is “ND (^ <4%)”. In addition, for the setting “SmartCube class probability”, the SH result is on record as “ND (^ <4%)”. Also, under setting [2], the AD result is recorded as “+ (≥4%)” and the UK result is “++++ (≥74%)”.
